Measured values: ChEMBL document CHEMBL5291721, “A preclinical secondary pharmacology resource illuminates target-adverse drug reaction associations of marketed drugs” (Nat Commun, 2023)

Experiments:
Thromboxane A2 receptor = target: T1, Thromboxane A2 receptor (Homo sapiens, UniProt P21731); format: functional, cell-based
T1 sequence (P21731 whole entry): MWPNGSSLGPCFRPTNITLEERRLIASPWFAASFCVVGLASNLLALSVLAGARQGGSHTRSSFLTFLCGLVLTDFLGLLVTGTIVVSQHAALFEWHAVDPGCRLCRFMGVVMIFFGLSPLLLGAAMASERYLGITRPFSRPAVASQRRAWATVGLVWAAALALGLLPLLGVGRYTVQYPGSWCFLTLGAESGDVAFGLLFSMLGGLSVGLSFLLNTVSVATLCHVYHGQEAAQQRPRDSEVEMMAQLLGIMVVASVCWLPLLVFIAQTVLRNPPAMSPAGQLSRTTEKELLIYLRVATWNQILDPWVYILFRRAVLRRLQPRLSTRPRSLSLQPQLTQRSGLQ

[1] = target: Prostaglandin G/H synthase 1 (Homo sapiens, UniProt P23219); format: functional
Chain of Prostaglandin G/H synthase 1 (P23219 whole entry): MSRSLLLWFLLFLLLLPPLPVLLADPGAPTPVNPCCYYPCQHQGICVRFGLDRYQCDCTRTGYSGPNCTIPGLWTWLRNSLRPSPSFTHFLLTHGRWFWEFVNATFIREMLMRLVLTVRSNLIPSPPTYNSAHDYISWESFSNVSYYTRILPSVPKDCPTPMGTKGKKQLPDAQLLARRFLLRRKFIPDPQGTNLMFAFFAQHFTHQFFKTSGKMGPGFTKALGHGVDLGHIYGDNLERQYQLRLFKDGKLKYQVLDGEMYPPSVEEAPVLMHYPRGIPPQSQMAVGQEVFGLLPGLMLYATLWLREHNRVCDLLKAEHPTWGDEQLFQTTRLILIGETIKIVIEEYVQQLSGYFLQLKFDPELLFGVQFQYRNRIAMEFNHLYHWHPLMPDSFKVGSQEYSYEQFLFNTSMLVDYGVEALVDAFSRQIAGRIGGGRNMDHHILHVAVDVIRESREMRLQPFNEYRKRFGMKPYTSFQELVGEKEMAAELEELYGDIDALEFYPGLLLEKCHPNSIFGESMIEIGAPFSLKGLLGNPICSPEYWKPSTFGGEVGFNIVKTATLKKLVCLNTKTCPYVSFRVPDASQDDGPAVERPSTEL

[2] = target: T2, Alpha-2A adrenergic receptor (Homo sapiens, UniProt P08913)
T2 sequence (P08913 whole entry): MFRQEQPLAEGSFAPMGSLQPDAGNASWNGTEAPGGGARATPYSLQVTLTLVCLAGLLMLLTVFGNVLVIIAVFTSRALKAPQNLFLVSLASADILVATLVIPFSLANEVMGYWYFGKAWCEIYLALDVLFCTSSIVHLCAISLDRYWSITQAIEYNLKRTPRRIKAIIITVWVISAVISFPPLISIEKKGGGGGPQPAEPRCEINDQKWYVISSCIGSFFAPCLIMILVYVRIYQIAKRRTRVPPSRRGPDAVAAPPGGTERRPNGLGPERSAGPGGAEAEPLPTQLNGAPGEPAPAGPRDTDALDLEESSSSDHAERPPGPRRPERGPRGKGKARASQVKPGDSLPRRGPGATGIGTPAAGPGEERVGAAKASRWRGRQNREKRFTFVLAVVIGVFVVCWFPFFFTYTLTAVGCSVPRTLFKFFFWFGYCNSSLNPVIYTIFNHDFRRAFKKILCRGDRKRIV

[3] = target: Voltage-dependent L-type calcium channel subunit alpha-1C (Rattus norvegicus, UniProt P22002); format: functional
Chain of Voltage-dependent L-type calcium channel subunit alpha-1C (P22002 whole entry): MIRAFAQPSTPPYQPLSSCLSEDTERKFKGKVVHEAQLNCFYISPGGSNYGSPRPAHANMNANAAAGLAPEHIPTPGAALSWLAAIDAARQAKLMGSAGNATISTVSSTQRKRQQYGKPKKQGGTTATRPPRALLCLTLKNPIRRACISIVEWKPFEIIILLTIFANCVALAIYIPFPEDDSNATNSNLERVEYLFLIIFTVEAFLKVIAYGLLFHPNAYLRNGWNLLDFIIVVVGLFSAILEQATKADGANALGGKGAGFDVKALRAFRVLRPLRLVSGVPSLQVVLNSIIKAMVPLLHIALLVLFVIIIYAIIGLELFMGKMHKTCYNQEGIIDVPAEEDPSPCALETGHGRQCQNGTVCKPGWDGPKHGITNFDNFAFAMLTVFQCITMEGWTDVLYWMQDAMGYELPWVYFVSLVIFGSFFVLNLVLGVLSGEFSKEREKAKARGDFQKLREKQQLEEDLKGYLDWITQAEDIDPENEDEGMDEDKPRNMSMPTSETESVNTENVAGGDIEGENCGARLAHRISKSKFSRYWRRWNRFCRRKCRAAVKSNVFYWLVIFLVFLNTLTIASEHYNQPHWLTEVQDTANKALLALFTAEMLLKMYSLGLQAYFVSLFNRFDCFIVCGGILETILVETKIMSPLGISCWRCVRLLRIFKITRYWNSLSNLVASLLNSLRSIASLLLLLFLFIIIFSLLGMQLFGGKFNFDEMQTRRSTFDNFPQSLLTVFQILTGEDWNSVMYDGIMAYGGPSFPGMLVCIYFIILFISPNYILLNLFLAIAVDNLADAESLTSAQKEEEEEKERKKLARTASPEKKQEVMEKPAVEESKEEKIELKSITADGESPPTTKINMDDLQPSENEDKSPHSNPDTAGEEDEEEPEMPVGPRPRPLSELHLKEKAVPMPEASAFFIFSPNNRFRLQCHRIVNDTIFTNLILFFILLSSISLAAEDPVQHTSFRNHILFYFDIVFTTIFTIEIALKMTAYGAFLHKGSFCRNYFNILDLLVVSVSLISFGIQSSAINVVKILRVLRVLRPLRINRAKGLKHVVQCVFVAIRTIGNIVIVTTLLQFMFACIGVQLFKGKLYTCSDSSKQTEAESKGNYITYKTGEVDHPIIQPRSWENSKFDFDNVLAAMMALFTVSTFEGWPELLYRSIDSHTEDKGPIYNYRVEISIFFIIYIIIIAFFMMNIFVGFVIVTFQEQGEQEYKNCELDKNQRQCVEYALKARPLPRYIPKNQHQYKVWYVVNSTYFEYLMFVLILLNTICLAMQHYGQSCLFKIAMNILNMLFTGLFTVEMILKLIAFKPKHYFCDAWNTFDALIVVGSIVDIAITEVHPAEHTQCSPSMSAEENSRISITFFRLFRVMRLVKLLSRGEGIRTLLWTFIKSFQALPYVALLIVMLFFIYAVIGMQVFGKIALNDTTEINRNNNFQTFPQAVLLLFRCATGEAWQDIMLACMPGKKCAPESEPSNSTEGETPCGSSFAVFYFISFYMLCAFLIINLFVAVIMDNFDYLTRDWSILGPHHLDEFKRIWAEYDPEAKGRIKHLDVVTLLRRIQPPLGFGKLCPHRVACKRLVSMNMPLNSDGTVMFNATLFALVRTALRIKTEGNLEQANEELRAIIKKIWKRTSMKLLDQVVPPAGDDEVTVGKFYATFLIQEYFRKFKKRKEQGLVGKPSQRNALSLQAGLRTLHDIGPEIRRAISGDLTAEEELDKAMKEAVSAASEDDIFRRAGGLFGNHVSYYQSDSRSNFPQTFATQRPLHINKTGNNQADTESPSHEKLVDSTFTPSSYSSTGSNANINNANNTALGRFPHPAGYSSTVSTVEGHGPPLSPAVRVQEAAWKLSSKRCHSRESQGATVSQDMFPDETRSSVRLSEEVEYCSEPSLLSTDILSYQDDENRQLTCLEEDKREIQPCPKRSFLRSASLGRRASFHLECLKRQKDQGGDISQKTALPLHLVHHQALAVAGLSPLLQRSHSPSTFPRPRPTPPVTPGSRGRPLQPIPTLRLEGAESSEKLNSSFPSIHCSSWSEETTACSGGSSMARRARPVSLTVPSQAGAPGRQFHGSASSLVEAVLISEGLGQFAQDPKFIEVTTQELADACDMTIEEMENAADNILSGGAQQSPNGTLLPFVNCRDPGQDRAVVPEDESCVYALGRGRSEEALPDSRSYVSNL

Progesterone receptor [4] = target: T3, Progesterone receptor (Homo sapiens, UniProt P06401); format: functional
T3 sequence (P06401 whole entry): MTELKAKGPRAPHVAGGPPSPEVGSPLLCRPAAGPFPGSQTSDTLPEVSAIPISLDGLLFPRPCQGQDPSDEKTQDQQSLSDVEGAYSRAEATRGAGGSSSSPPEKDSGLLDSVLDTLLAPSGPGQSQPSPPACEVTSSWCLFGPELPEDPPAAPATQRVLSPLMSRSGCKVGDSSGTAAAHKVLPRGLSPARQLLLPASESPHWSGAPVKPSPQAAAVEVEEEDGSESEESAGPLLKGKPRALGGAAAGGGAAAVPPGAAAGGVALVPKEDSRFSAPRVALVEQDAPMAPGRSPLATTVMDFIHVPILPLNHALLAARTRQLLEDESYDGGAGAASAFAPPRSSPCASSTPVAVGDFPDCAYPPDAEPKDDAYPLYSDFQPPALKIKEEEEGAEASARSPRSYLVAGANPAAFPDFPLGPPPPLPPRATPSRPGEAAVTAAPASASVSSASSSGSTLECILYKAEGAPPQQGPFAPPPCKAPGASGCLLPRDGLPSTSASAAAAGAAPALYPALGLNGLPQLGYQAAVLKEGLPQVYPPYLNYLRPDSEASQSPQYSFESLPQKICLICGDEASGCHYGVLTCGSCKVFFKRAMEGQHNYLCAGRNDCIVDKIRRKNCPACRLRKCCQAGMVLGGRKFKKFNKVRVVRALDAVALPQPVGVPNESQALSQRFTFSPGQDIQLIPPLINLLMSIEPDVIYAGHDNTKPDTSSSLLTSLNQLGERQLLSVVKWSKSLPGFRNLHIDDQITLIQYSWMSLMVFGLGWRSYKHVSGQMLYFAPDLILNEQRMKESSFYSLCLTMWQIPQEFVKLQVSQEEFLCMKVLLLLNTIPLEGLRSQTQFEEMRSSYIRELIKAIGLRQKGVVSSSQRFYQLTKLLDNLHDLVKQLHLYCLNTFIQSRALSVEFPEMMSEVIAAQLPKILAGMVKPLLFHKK

D(1A) dopamine receptor = D(1A) dopamine receptor (Homo sapiens, UniProt P21728); format: functional, cell-based
Chain of D(1A) dopamine receptor (P21728 whole entry): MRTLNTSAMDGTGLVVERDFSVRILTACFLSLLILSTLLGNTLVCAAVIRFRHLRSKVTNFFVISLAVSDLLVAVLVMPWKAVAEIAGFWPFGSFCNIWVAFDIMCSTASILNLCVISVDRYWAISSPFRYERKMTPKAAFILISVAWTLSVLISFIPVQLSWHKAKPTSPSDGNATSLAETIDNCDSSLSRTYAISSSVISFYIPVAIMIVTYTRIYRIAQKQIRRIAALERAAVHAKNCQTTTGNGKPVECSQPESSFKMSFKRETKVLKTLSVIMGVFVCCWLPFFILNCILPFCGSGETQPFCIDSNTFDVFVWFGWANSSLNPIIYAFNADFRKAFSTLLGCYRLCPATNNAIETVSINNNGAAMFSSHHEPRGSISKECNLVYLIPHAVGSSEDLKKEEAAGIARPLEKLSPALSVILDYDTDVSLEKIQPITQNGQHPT

[5] = target: Beta-1 adrenergic receptor (Homo sapiens, UniProt P08588); format: functional
Chain of Beta-1 adrenergic receptor (P08588 whole entry): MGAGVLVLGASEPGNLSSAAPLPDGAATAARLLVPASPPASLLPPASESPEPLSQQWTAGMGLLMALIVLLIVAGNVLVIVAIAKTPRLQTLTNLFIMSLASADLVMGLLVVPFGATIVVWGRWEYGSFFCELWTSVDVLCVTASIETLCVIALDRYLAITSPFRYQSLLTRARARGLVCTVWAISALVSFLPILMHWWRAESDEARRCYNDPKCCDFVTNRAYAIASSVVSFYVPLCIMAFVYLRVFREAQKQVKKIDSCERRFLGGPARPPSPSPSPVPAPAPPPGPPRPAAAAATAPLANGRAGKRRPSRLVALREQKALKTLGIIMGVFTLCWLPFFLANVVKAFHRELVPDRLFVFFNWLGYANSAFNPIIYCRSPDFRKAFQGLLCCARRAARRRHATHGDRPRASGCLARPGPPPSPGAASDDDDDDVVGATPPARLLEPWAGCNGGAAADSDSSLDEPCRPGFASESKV

Progesterone receptor [6] = target: T3, Progesterone receptor; format: functional; remark: listed apart in the source
[7] = target: T4, Alpha-1A adrenergic receptor (Homo sapiens, UniProt P35348); format: functional, cell-based
T4 sequence (P35348 whole entry): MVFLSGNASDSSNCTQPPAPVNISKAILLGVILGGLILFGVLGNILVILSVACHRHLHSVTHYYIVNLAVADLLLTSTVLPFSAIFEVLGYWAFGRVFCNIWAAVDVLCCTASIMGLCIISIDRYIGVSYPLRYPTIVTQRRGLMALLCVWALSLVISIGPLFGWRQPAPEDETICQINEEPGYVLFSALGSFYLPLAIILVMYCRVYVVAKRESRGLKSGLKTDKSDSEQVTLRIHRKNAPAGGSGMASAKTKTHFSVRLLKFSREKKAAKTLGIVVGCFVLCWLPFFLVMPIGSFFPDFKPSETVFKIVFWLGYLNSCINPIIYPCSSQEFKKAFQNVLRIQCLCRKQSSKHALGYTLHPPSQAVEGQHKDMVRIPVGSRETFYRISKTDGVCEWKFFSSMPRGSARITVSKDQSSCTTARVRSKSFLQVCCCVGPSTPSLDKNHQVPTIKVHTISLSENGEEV

Histamine H3 receptor = Histamine H3 receptor (Homo sapiens, UniProt Q9Y5N1)
Chain of Histamine H3 receptor (Q9Y5N1 whole entry): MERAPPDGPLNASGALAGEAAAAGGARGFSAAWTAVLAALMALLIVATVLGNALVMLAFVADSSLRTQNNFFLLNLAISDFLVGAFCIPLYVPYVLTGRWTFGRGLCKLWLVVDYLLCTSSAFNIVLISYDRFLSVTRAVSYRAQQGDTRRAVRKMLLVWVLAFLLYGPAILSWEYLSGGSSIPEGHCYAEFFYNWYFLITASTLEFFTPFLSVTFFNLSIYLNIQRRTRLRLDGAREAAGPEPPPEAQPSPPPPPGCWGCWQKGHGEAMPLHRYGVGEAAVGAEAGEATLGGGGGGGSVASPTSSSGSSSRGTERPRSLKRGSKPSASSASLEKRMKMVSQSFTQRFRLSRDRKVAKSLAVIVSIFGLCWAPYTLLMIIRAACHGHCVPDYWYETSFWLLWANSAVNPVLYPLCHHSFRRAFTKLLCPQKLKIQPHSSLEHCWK
Note: assay procedure not described here.

| SMILES | AC50 (Thromboxane A2 receptor) [µM] | AC50 [1] [µM] | AC50 [2] [µM] | also measured |
| --- | --- | --- | --- | --- |
| c1ccc2c(c1)CCc1ccccc1N2C1CN2CCC1CC2 (centres undefined) [QUINUPRAMINE] | > 30 | > 30 | 13.2 |  |
| CCCCC1C(=O)N(c2ccccc2)N(c2ccccc2)C1=O [PHENYLBUTAZONE] |  |  |  | AC50 [3]: > 10 µM; AC50 (Progesterone receptor [4]): > 10 µM; AC50 (D(1A) dopamine receptor): > 10 µM; AC50 [5]: > 10 µM; AC50 (Progesterone receptor [6]): > 10 µM |
| C[C@H](Cc1cc2c(c(C(N)=O)c1)N(CCCO)CC2)NCCOc1ccccc1OCC(F)(F)F [SILODOSIN] | > 30 | > 30 | 1.28 |  |
| C=CCSCC1Nc2cc(Cl)c(S(N)(=O)=O)cc2S(=O)(=O)N1 (centres undefined) [ALTHIAZIDE] | > 30 | > 30 | > 30 |  |
| O=[N+]([O-])c1ccc(O)c2ncccc12 [NITROXOLINE] | > 30 | > 30 | > 30 | AC50 (D(1A) dopamine receptor): > 30 µM; AC50 [7]: > 30 µM |
| Oc1ccc2c(c1)CC[C@H](c1ccccc1)[C@@H]2c1ccc(OCCN2CCCC2)cc1 [LASOFOXIFENE] |  |  |  | AC50 (Progesterone receptor [4]): > 30 µM; AC50 (D(1A) dopamine receptor): > 30 µM; AC50 [5]: 10 µM; AC50 (Histamine H3 receptor): 0.99 µM; AC50 (Progesterone receptor [6]): > 10 µM |
| CN(C)CCOC(c1ccccc1)c1ccc(Br)cc1 (centres undefined) [BROMODIPHENHYDRAMINE] | > 30 | > 30 | 8.38 |  |
| NC(=O)OCC(O)COc1ccc(Cl)cc1 (centres undefined) [CHLORPHENESIN CARBAMATE] | > 30 | > 30 | > 30 |  |
| CCC(=O)O[C@]1(C(=O)SCF)[C@H](C)C[C@H]2[C@@H]3C[C@H](F)C4=CC(=O)C=C[C@]4(C)[C@@]3(F)[C@@H](O)C[C@@]21C [FLUTICASONE PROPIONATE] | > 30 | > 30 | > 30 | AC50 [3]: > 30 µM; AC50 (D(1A) dopamine receptor): > 30 µM; AC50 [7]: > 30 µM; AC50 [5]: > 30 µM; AC50 (Histamine H3 receptor): > 30 µM |
| Cc1ccccc1N1CCN(CCc2nnc3n2CCCC3)CC1 [DAPIPRAZOLE] | > 30 | > 30 | 3.77 |  |
| CN1CCN(C2=Nc3ccccc3Oc3ccc(Cl)cc32)CC1 [LOXAPINE] | > 30 | > 30 |  | AC50 [3]: > 10 µM; AC50 (D(1A) dopamine receptor): > 10 µM; AC50 [7]: > 30 µM; AC50 [5]: > 10 µM; AC50 (Histamine H3 receptor): > 10 µM |
| CC(=O)O[C@]1(C(C)=O)CC[C@H]2[C@@H]3C=C(Cl)C4=CC(=O)CC[C@]4(C)[C@H]3CC[C@@]21C [CHLORMADINONE ACETATE] | > 30 | > 30 | > 30 |  |
| Cc1c(N(C)CS(=O)(=O)O)c(=O)n(-c2ccccc2)n1C [METAMIZOLE] | > 30 | > 30 | > 30 |  |
| CCC(=O)O[C@]1(C(=O)CCl)[C@@H](C)C[C@H]2[C@@H]3C[C@H](F)C4=CC(=O)C=C[C@]4(C)[C@@]3(F)[C@@H](O)C[C@@]21C [HALOBETASOL PROPIONATE] | > 30 | > 30 | > 30 |  |
| Cc1ncc(COP(=O)(O)O)c(C=O)c1O [PYRIDOXAL PHOSPHATE ANHYDROUS] | > 30 | 8.66 | > 30 |  |
| CC(N)Cc1ccc(O)cc1 (centres undefined) [HYDROXYAMPHETAMINE] | > 30 | > 30 | > 30 |  |
| CC(C(=O)O)c1ccc(-c2ccccc2)c(F)c1 (centres undefined) [FLURBIPROFEN] | > 30 |  | > 30 | AC50 [3]: > 10 µM; AC50 (D(1A) dopamine receptor): > 10 µM; AC50 [5]: > 10 µM |
| CC(C)N(CCNC(=O)CN1CCCC1=O)C(C)C | > 30 | > 30 | > 30 |  |

| SMILES | AC50 (Thromboxane A2 receptor) [µM] | AC50 [1] [µM] | AC50 [2] [µM] | also measured |
| --- | --- | --- | --- | --- |
| CC1=CCC(C(C)(C)O)CC1O (centres undefined) [SOBREROL] | > 30 | > 30 | > 30 |  |
| NCC(CC(=O)O)c1ccccc1 (centres undefined) [PHENIBUT] | > 30 | > 30 | > 30 |  |
| C=C1CC[C@H](O)C/C1=C/C=C1\CCC[C@]2(C)[C@@H]([C@H](C)/C=C/[C@H](C)C(C)C)CC[C@@H]12 [ERGOCALCIFEROL] | > 30 | 20.3 | > 30 |  |
| COc1cc(N2CCC(N3CCN(C)CC3)CC2)ccc1Nc1ncc(Cl)c(Nc2ccccc2P(C)(C)=O)n1 [BRIGATINIB] | > 30 | > 30 | > 30 |  |
| COC(=O)c1ccc(O)cc1 [METHYLPARABEN] | > 30 | > 30 | > 30 |  |
| O=C(O)c1cn(C2CC2)c2cc(N3CCNCC3)c(F)cc2c1=O [CIPROFLOXACIN] | > 30 |  |  |  |
| Cc1cc(N)c2ccccc2[n+]1CCCCCCCCCC[n+]1c(C)cc(N)c2ccccc21 | > 30 | 14.8 | 0.464 |  |
| CC(C)(C)NC[C@H](O)COc1cccc2c1CCCC2=O [LEVOBUNOLOL] | > 30 | > 30 | > 30 |  |
| CN1C(=O)/C(=N\NC(N)=S)c2ccccc21 [METHISAZONE] | 21.8 | > 10 | > 30 |  |
| CCN(CCCc1ccccc1)CCCc1ccccc1 [ALVERINE] | > 30 | > 30 | 1.96 |  |
| COc1cc2c(cc1OC)CC(=O)N(CCCN(C)C[C@H]1Cc3cc(OC)c(OC)cc31)CC2 [IVABRADINE] | > 30 | > 30 | > 30 |  |
| Cc1cnc(C(=O)NCCc2ccc(S(=O)(=O)NC(=O)NC3CCCCC3)cc2)cn1 [GLIPIZIDE] | > 30 |  | > 30 | AC50 [5]: > 10 µM; AC50 (Histamine H3 receptor): > 10 µM |
| CCN(CC)C(=S)S [DITIOCARB] | > 30 | > 30 | > 30 |  |
| CCCc1nc(C(C)(C)O)c(C(=O)O)n1Cc1ccc(-c2ccccc2-c2nnn[nH]2)cc1 [OLMESARTAN] | > 30 | > 30 | > 30 |  |
| COc1ccc(CN(CCN(C)C)c2ccccn2)cc1 [PYRILAMINE] | > 30 | > 30 | 7.07 |  |
| CCOC(=O)[C@H](CCc1ccccc1)N[C@@H](C)C(=O)N(CC(=O)O)C1Cc2ccccc2C1 | > 30 | > 30 | > 30 |  |
| Cc1cc(NC(=O)C2=C(O)c3ccccc3S(=O)(=O)N2C)no1 [ISOXICAM] | > 30 | > 30 | > 30 |  |
| CCOC(=O)N1CSC[C@H]1C(=O)O [TELMESTEINE] | > 30 | > 30 | > 30 |  |
